Test results taken from US20200197472A1, “COSMETIC COMPOSITIONS” (Mary Kay Inc., priority 2018, published 2020).

How the values were obtained:
Type in all cases: cell-based
[1] = test system: procollagen peptide; experiment: Collagen stimulation: procollagen peptide production by human epidermal fibroblasts (ELISA); conditions: for Collagen Production, Activity compared to control: human fibroblasts treated 3 days
Text: Collagen is an extracellular matrix protein critical for skin structure. Increased synthesis of collagen helps improve skin firmness and elasticity. This bioassay was used to examine the effect of Alpinia galangal leaf extract, dihydroxymethyl chromone, tripeptide-1, Alteromonas ferment filtrate, Pisum Sativum (pea) extract, and/or TAUT on the production of procollagen peptide (a precursor to collagen) by human epidermal fibroblasts. The endpoint of this assay was a spectrophotometric measurement that reflects the presence of procollagen peptide and cellular viability. The assay employed the quantitative sandwich enzyme immunoassay technique whereby a monoclonal antibody specific for procollagen peptide had been pre-coated onto a microplate. Standards and samples were pipetted into the wells and any procollagen peptide present was bound by the immobilized antibody. After washing away any unbound substances, an enzyme-linked polyclonal antibody specific for procollagen peptide was added to the wells. Following a wash to remove any unbound antibody-enzyme reagent, a substrate solution was added to the wells and color develops in proportion to the amount of procollagen peptide bound in the initial step using a microplate reader for detection at 450 nm. The color development was stopped and the intensity of the color was measured.
For generation of samples and controls, subconfluent normal human adult epidermal fibroblasts (Cascade Biologics) cultivated in standard DMEM growth medium with 10% fetal bovine serum (Mediatech) at 37° C. in 10% CO2, were treated with each of the ingredients for 3 days. Following incubation, cell culture medium was collected and the amount of procollagen peptide secretion quantified using a sandwich enzyme linked immuno-sorbant assay (ELISA) from Takara (# MK101).

[2] = test system: fibronectin; experiment: Fibronectin secretion by cultured human fibroblasts (ELISA); conditions: 3 days, 1.0% final concentration
Text: Laminin and fibronectin are major proteins in the dermal-epidermal junction (DEJ) (also referred to as the basement membrane). The DEJ is located between the dermis and the epidermis interlocks forming fingerlike projections called rete ridges. The cells of the epidermis receive their nutrients from the blood vessels in the dermis. The rete ridges increase the surface area of the epidermis that is exposed to these blood vessels and the needed nutrients. The DEJ provides adhesion of the two tissue compartments and governs the structural integrity of the skin. Laminin and fibronectin are two structural glycoproteins located in the DEJ. […] Laminin and fibronectin secretion was monitored by quantifying laminin and fibronectin in cell supernatants of cultured human fibroblasts treated for 3 days with culture medium with or without 1.0% final concentration of the test ingredient(s). Following incubation, laminin and fibronectin contents were measured using immunofluorescent antibodies directed against each protein in an enzyme linked immuno-sorbant assay (ELISA). Measurements were normalized for cellular metabolic activity, as determined by bioconversion of 3-(4,5-dimethylthiazol-2-yl)-5-(3-carboxymethoxyphenyl)-2-(4-sulfophenyl)-2H-tetrazolium (MTS).

[3] = test system: hyaluronic acid; experiment: Production of hyaluronic acid in adult human dermal fibroblasts (HDFa), ELISA; conditions: for Hyaluronic Acid Production, Activity compared to control: HDFa cells, 24 hours
Method: Changes in the production of hyaluronic acid in human dermal fibroblasts due to each of Centella asiatica meristem cell culture, Alpinia galangal leaf extract, tripeptide-1, and TAUT were measured. Hyaluronic acid (HA) is a polysaccharide involved in stabilization of the structure of the matrix and is involved in providing turgor pressure to tissue and cells. As one non-limiting example, HA production in treated and non-treated adult human dermal fibroblasts (HDFa) cells was determined using the Hyaluronan DuoSet ELISA kit from R&D Systems (DY3614). In this assay, for production of samples, subconfluent HDFa cells from Cascade Biologics (C-13-5C) were incubated at 37° C. and 10% CO2 in starvation medium (0.15% fetal bovine serum and 1% Penicillin Streptomycin solution in Dulbecco's Modified Eagle Medium) for 72 hours prior to treatment. The cells were then incubated with fresh starvation medium with either test compound, positive control (phorbol 12-myristate 13-acetate from Sigma-Aldrich (P1585) and platelet derived growth factor from Sigma-Aldrich (P3201)), or no additive for 24 hours. Media was then collected and frozen at −80° C. until use in the ELISA assay.
Briefly, the ELISA assay employed a quantitative sandwich enzyme immunoassay technique whereby a capture antibody specific for HA can be pre-coated onto a microplate. Standards and media from treated and untreated cells were pipetted into the microplate wells to enable any HA present to be bound by the immobilized antibody. After washing away any unbound substances, an enzyme-linked detection antibody specific for HA was added to the wells. Following a wash to remove any unbound antibody-enzyme reagent, a substrate solution was added to the wells to allow color development in proportion to the amount of HA bound in the initial step. The color development was stopped at a specific time and the intensity of the color at 450 nm was measured using a microplate reader.

[4] = test system: TNF-α; experiment: Inhibition of TNF-α production by PMA-treated human epidermal keratinocytes (ELISA)
Text: The prototype ligand of the TNF superfamily, TNF-α, is a pleiotropic cytokine that plays a central role in inflammation. Increase in its expression is associated with an up regulation in pro-inflammatory activity. This bioassay was used to analyze the effect of tetradecyl aminobutyroylvalylaminobutyric urea trifluoroacetate, and/or Alteromonas ferment filtrate on the production of TNF-α by human epidermal keratinocytes. The endpoint of this assay was a spectrophotometric measurement that reflects the presence of TNF-α and cellular viability. The assay employed the quantitative sandwich enzyme immunoassay technique whereby a monoclonal antibody specific for TNF-α has been pre-coated onto a microplate. Standards and samples were pipetted into the wells and any TNF-α present was bound by the immobilized antibody. After washing away any unbound substances, an enzyme-linked polyclonal antibody specific for TNF-α was added to the wells. Following a wash to remove any unbound antibody-enzyme reagent, a substrate solution was added to the wells and color develops in proportion to the amount of TNF-α bound in the initial step using a microplate reader for detection at 450 nm. The color development was stopped and the intensity of the color can be measured. […]

Row | Compound | Collagen Production, Activity compared to control [1] | Fibronectin Secretion, Activity compared to control [2] | production of collagen (in words) [1] | production of hyaluronic acid (in words) [3] | Hyaluronic Acid Production, Activity compared to control [3] | production of TNF-α (in words) [4] | TNF-α Production, Activity compared to control ([4]; compared to PMA, human keratinocytes, PMA 10 ng/ml, 6 hours) [%]
1 | Cc1cc(=O)c2c(O)cc(O)cc2o1 [dihydroxymethyl chromone] | +20% | +28% | – | – | – | – | –
2 | tetradecyl aminobutyroylvalylaminobutyric urea trifluoroacetate [TAUT] | +18% | – | increases | increases | +64% | inhibits | −100
3 | tripeptide-1 | +20% | – | increases | increases | +93% | – | –
